Legend:
Assay type in all cases: cell-based, human
[1] = test system: H460 lung cancer cells; test: Alamar Blue proliferation assay, H460; conditions: for % proliferation: relative to NC miRNA (100%)
Description: (§1) The inventors assessed the therapeutic effect of hsa-miR-126 for lung cancer by using 11 individual lung cancer cell lines. To measure cellular proliferation of lung cancer cells, the following non-small cell lung cancer (NSCLC) cells were used: cells derived from lung adenocarcinoma (A549, H1299, H522, H838, Calu-3, HCC827, HCC2935), cells derived from lung squamous cell carcinoma (H520, H226), cells derived from lung bronchioalveolar carcinoma (H1650), and cells derived from lung large cell carcinoma (H460). Synthetic hsa-miR-126 (Pre-miR™-hsa-miR-126, Ambion cat. no. AM17100) or negative control (NC) miRNA (Pre-miR™ microRNA Precursor Molecule-Negative Control #2; Ambion cat. no. AM17111) was delivered via lipid-based transfection into A549, H1299, H522, H838, Calu-3, HCC827, HCC2935, H520, H1650, and H460 cells, and via electroporation into H226 cells.
Lipid-based reverse transfections were carried out in triplicate according to a published protocol (Ovcharenko et al., 2005) and the following parameters: Cells (5,000-12,000 per 96 well), 0.1-0.2 μl Lipofectamine™ 2000 (cat. no. 11668-019, Invitrogen Corp., Carlsbad, Calif., USA) in 20 μl OptiMEM (Invitrogen), 30 nM final concentration of miRNA in 100 μl. Electroporation of H226 cells was carried out using the BioRad Gene Pulser Xcell™ instrument (BioRad Laboratories Inc., Hercules, Calif., USA) with the following settings: 5×10^6 cells with 5 μg miRNA in 200 μl OptiMEM (1.6 μM miRNA), square wave pulse at 250 V for 5 ms. Electroporated H226 cells were seeded at 7,000 cells per 96-well in a total volume of 100 μl. All cells except for Calu-3 cells were harvested 72 hours post transfection or electroporation for assessment of cellular proliferation. Calu-3 cells were harvested 10 days post transfection. Proliferation assays were performed using Alamar Blue (Invitrogen) following the manufacturer's instructions. As a control for inhibition of cellular proliferation, siRNA against the motor protein kinesin 11, also known as Eg5, was used. Eg5 is essential for cellular survival of most eukaryotic cells and a lack thereof leads to reduced cell proliferation and cell death (Weil et al., 2002). siEg5 was used in lipid-based transfection following the same experimental parameters that apply to miRNA. The inventors also used a DNA topoisomerase II inhibitor, etoposide, at a final concentration of 10 μM and 50 μM as an internal standard for the potency of miRNAs. Etoposide is an FDA-approved DNA topoisomerase II inhibitor in the treatment of lung cancer. […] Percent (%) proliferation values from the Alamar Blue assay were normalized to values from cells treated with negative control miRNA. […]

[2] = test system: H520 lung cancer cells; test: Alamar Blue proliferation assay, H520
Description: as §1
(§2) Lipid-based reverse transfections were carried out in triplicate according to a published protocol (Ovcharenko et al., 2005) and the following parameters: Cells (5,000-12,000 per 96 well), 0.1-0.2 μl Lipofectamine™ 2000 (cat. no. 11668-019, Invitrogen Corp., Carlsbad, Calif., USA) in 20 μl OptiMEM (Invitrogen), 30 nM final concentration of miRNA in 100 μl. Electroporation of H226 cells was carried out using the BioRad Gene Pulser Xcell™ instrument (BioRad Laboratories Inc., Hercules, Calif., USA) with the following settings: 5×10^6 cells with 5 μg miRNA in 200 μl OptiMEM (1.6 μM miRNA), square wave pulse at 250 V for 5 ms. Electroporated H226 cells were seeded at 7,000 cells per 96-well in a total volume of 100 μl. All cells except for Calu-3 cells were harvested 72 hours post transfection or electroporation for assessment of cellular proliferation. Calu-3 cells were harvested 10 days post transfection. Proliferation assays were performed using Alamar Blue (Invitrogen) following the manufacturer's instructions. As a control for inhibition of cellular proliferation, siRNA against the motor protein kinesin 11, also known as Eg5, was used. […]

[3] = test system: H838 lung cancer cells; test: Alamar Blue proliferation assay, H838; conditions: relative to NC miRNA (100%)
Description: as §1, §2

[4] = test system: HCC827 lung cancer cells; test: Alamar Blue proliferation assay, HCC827; conditions: relative to NC miRNA (100%)
Description: as §1, §2

[5] = test system: H460 lung cancer cells; test: Pair-wise miRNA combinations, Alamar Blue proliferation; conditions: for % proliferation: mock-transfected cells, 48 h
Description: miRNAs function in multiple pathways controlling multiple cellular processes. Cancer cells frequently show aberrations in several different pathways, which determine their oncogenic properties. […] The inventors assessed the efficacy of pair-wise miRNA combinations, administering hsa-miR-126 concurrently with either hsa-miR-34a, hsa-miR-124a, hsa-miR-147, hsa-let-7b, hsa-let-7c or hsa-let-7g (Pre-miR™ miRNA, Ambion cat. no. AM17100). H460 lung cancer cells were transiently reverse-transfected in triplicates with each miRNA at a final concentration of 300 pM, resulting in 600 pM of oligonucleotide. For negative controls, 600 pM of Pre-miR™ microRNA
Precursor Molecule-Negative Control #2 (Ambion cat. no. AM17111) were used. To correlate the effect of various combinations with the effect of the sole miRNA, each miRNA at 300 pM was also combined with 300 pM negative control miRNA. Reverse transfection was carried using the following parameters: 7,000 cells per 96 well, 0.15 μl Lipofectamine™ 2000 (Invitrogen) in 20 μl OptiMEM (Invitrogen), 100 μl total transfection volume. As an internal control for the potency of miRNA, etoposide was added at 10 μM and 50 μM to mock-transfected cells, 24 hours after transfection for the following 48 hours. Cells were harvested 72 hours after transfection and subjected to Alamar Blue assays (Invitrogen). Percent proliferation values from the Alamar Blue assay were normalized to those obtained from cells treated with 600 pM negative control miRNA. Data are expressed as % proliferation relative to negative control miRNA-treated cells (Table 8).
Additive activity of pair-wise combinations (e.g. hsa-miR-126 plus hsa-let-7b) is defined as an activity that is greater than the sole activity of each miRNA (e.g., the activity of hsa-miR-126 plus hsa-let-7b is greater than that observed for hsa-miR-126 plus NC and the activity of hsa-miR-126 plus hsa-let-7b is greater than that observed for hsa-let-7b plus NC). […]

Row | Compound | % proliferation ([1]; H460, 10 μM) [%] | % proliferation ([1]; H460, 50 μM) [%] | % proliferation ([2]; H520, 50 μM, relative to NC miRNA (100%)) [%] | % proliferation ([2]; H520, relative to NC miRNA (100%)) [%] | % proliferation ([3]; H838, 30 nM) [%] | % proliferation ([3]; H838, 50 μM) [%] | % proliferation ([4]; HCC827, 30 nM) [%] | % proliferation ([4]; HCC827, 10 μM) [%] | % proliferation ([5]; H460, 10 μM) [%] | % proliferation ([5]; H460, 50 μM) [%] | reduction of proliferation (maximal inhibitory activity) ([1]; H460, 30 nM) [%] | % proliferation ([1]; H460, 30 nM, 72 h) [%] | % proliferation ([2]; H520, 30 nM, 72 h, relative to NC miRNA (100%)) [%] | % proliferation ([3]; H838, 30 nM, 72 h) [%] | % proliferation ([4]; HCC827, 30 nM, 72 h) [%] | reduction of proliferation ([5]; H460, 300 pM) [%]
1 | COc1cc([C@@H]2c3cc4c(cc3[C@@H](O[C@@H]3O[C@@H]5CO[C@@H](C)O[C@H]5[C@H](O)[C@H]3O)[C@H]3COC(=O)[C@H]23)OCO4)cc(OC)c1O [etoposide] | 32.13 | 27.82 | 48.53 | 66.80 | 89.71 | 36.97 | 82.53 | 98.95 | 20.19 | 14.94 | – | – | – | – | – | –
2 | hsa-miR-126 (UCGUACCGUGAGUAAUAAUGC; synthetic pre-miR form, further chemistry not given here) [Synthetic hsa-miR-126 (Pre-miR™-hsa-miR-126, Ambion cat. no. AM17100)] | – | – | – | – | – | – | – | – | – | – | 71 | 29.09 | 80.99 | 74.05 | 84.31 | 10.54
